Test results taken from PubChem BioAssay (NCI).
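Following 48 hours of exposure in 96-well plates, responses at five concentrations were used to interpolate endpoints linearly. TGI denotes the concentration required for complete inhibition of growth.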

Experiments:
Assay in all cases: NCI tumour cell line growth inhibition, 48 h
LXFL 529 NSCLC = system: LXFL 529 NSCLC
HOP-18 NSCLC = system: HOP-18 NSCLC
XF 498 CNS = system: XF 498 CNS
DMS 273 small cell lung = system: DMS 273 small cell lung
DMS 114 small cell lung = system: DMS 114 small cell lung
KM20L2 colon = system: KM20L2 colon
RXF-631 renal = system: RXF-631 renal
M19-MEL melanoma = system: M19-MEL melanoma
P388 leukemia = system: P388 leukemia
P388/ADR leukemia = system: P388/ADR leukemia
SN12K1 renal = system: SN12K1 renal

Measured: TGI

C=C1c2c(cc3c(c2O)c(=O)c2ccccc2n3C)OC1(C)C
57.2 µM: XF 498 CNS
not listed: P388 leukemia | P388/ADR leukemia | SN12K1 renal
> 100 µM: all other assays above

Cc1ccc(C(=O)C(C)N)cc1 (configuration not stated)
> 100 µM: LXFL 529 NSCLC | HOP-18 NSCLC | XF 498 CNS | DMS 273 small cell lung | DMS 114 small cell lung | KM20L2 colon

Cc1c(-c2cc3n(n2)C(c2cccs2)C(C#N)=C(c2ccccc2)N3)c(=O)n(-c2ccccc2)n1C (configuration not stated)
> 31.6 µM: KM20L2 colon
not listed: LXFL 529 NSCLC | RXF-631 renal
> 100 µM: all other assays above

O=P(O)(O)C(CSc1ccccc1)P(=O)(O)O
not listed: LXFL 529 NSCLC | RXF-631 renal
> 100 µM: all other assays above

CC(=O)[O-].CC(=O)[O-].O=C(N/N=C/c1cc(Cl)cc(Cl)c1[OH2+])c1ccncc1.[Co+2]
> 100 µM: KM20L2 colon

CC(=O)c1ccc(Oc2ccc(/C(C)=N\N=C(N)N)cc2)cc1
3.43 µM: KM20L2 colon
17.4 µM: LXFL 529 NSCLC
4.98 µM: DMS 114 small cell lung

CC(C)(C)[Si](C)(C)OCCCC#CCO
> 100 µM: LXFL 529 NSCLC | XF 498 CNS | DMS 273 small cell lung | DMS 114 small cell lung | KM20L2 colon | RXF-631 renal
